# Source: PubChem BioAssay (NCI)
#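 All cell lines were grown in 96-well plates and treated with compound for 48 hours. The concentration for full growth arrest is given as TGI.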
# How the values were obtained:
# Test in all cases: NCI tumour cell line growth inhibition, 48 h
# U251 CNS = tested on: U251 CNS
# HCT-116 colon = tested on: HCT-116 colon
# OVCAR-4 ovarian = tested on: OVCAR-4 ovarian
# RXF 393 renal = tested on: RXF 393 renal
# KM12 colon = tested on: KM12 colon
# UO-31 renal = tested on: UO-31 renal
# SK-MEL-2 melanoma = tested on: SK-MEL-2 melanoma
# XF 498 CNS = tested on: XF 498 CNS
# M19-MEL melanoma = tested on: M19-MEL melanoma
# SR leukemia = tested on: SR leukemia
# ACHN renal = tested on: ACHN renal
# NCI-H226 lung = tested on: NCI-H226 lung
# IGROV1 ovarian = tested on: IGROV1 ovarian
# SNB-19 CNS = tested on: SNB-19 CNS
# DMS 273 small cell lung = tested on: DMS 273 small cell lung
# HT29 colon = tested on: HT29 colon
# NCI-H522 lung = tested on: NCI-H522 lung
# OVCAR-3 ovarian = tested on: OVCAR-3 ovarian
# SF-539 CNS = tested on: SF-539 CNS
# COLO 205 colon = tested on: COLO 205 colon
# SF-295 CNS = tested on: SF-295 CNS
# K-562 leukemia = tested on: K-562 leukemia
# OVCAR-8 ovarian = tested on: OVCAR-8 ovarian
# LXFL 529 NSCLC = tested on: LXFL 529 NSCLC
# TK-10 renal = tested on: TK-10 renal
# HL-60(TB) leukemia = tested on: HL-60(TB) leukemia
# UACC-257 melanoma = tested on: UACC-257 melanoma
# KM20L2 colon = tested on: KM20L2 colon
# HOP-62 NSCLC = tested on: HOP-62 NSCLC
# A498 renal = tested on: A498 renal
# EKVX NSCLC = tested on: EKVX NSCLC
# DMS 114 small cell lung = tested on: DMS 114 small cell lung
# SF-268 CNS = tested on: SF-268 CNS
# MALME-3M melanoma = tested on: MALME-3M melanoma
# NCI-H23 lung = tested on: NCI-H23 lung
# HCC-2998 colon = tested on: HCC-2998 colon
# M14 melanoma = tested on: M14 melanoma
# LOX IMVI melanoma = tested on: LOX IMVI melanoma
# CCRF-CEM leukemia = tested on: CCRF-CEM leukemia
# SW-620 colon = tested on: SW-620 colon
# SK-OV-3 ovarian = tested on: SK-OV-3 ovarian
# RPMI-8226 leukemia = tested on: RPMI-8226 leukemia
# HOP-92 NSCLC = tested on: HOP-92 NSCLC
# SNB-78 CNS = tested on: SNB-78 CNS
# MOLT-4 leukemia = tested on: MOLT-4 leukemia
# A549 NSCLC = tested on: A549 NSCLC
# HOP-18 NSCLC = tested on: HOP-18 NSCLC
# NCI-H460 lung = tested on: NCI-H460 lung
# DLD-1 colon = tested on: DLD-1 colon
# SK-MEL-28 melanoma = tested on: SK-MEL-28 melanoma
# OVCAR-5 ovarian = tested on: OVCAR-5 ovarian
# SN12C renal = tested on: SN12C renal
# SK-MEL-5 melanoma = tested on: SK-MEL-5 melanoma
# HCT-15 colon = tested on: HCT-15 colon
# SNB-75 CNS = tested on: SNB-75 CNS
# UACC-62 melanoma = tested on: UACC-62 melanoma
# CAKI-1 renal = tested on: CAKI-1 renal
# 786-0 renal = tested on: 786-0 renal
# RXF-631 renal = tested on: RXF-631 renal
smiles,measurement,setting,value
CC(C)(C)[Si](OC1CC(n2cnc3c(N)ncnc32)OC1CO)(c1ccccc1)c1ccccc1 (stereo unspecified),TGI,U251 CNS,34.1 µM
same,TGI,HCT-116 colon,31.3 µM
same,TGI,OVCAR-4 ovarian,28.5 µM
same,TGI,RXF 393 renal,29.5 µM
same,TGI,KM12 colon,38.9 µM
same,TGI,UO-31 renal,68.1 µM
same,TGI,SK-MEL-2 melanoma,36.1 µM
same,TGI,XF 498 CNS,51.3 µM
same,TGI,M19-MEL melanoma,42.9 µM
same,TGI,SR leukemia,43.8 µM
same,TGI,ACHN renal,31.8 µM
same,TGI,NCI-H226 lung,27.1 µM
same,TGI,IGROV1 ovarian,48 µM
same,TGI,SNB-19 CNS,50 µM
same,TGI,DMS 273 small cell lung,35.8 µM
same,TGI,HT29 colon,30.2 µM
same,TGI,NCI-H522 lung,30 µM
same,TGI,OVCAR-3 ovarian,33.9 µM
same,TGI,SF-539 CNS,36.7 µM
same,TGI,COLO 205 colon,88.1 µM
same,TGI,SF-295 CNS,30.5 µM
same,TGI,K-562 leukemia,> 100 µM
same,TGI,OVCAR-8 ovarian,33.3 µM
same,TGI,LXFL 529 NSCLC,> 100 µM
same,TGI,TK-10 renal,53.4 µM
same,TGI,HL-60(TB) leukemia,> 100 µM
same,TGI,UACC-257 melanoma,> 100 µM
same,TGI,KM20L2 colon,29.5 µM
same,TGI,HOP-62 NSCLC,45.3 µM
same,TGI,A498 renal,32.9 µM
same,TGI,EKVX NSCLC,41.7 µM
same,TGI,DMS 114 small cell lung,54.2 µM
same,TGI,SF-268 CNS,35 µM
same,TGI,MALME-3M melanoma,45.9 µM
same,TGI,NCI-H23 lung,28 µM
same,TGI,HCC-2998 colon,> 100 µM
same,TGI,M14 melanoma,> 100 µM
same,TGI,LOX IMVI melanoma,31.7 µM
same,TGI,CCRF-CEM leukemia,> 100 µM
same,TGI,SW-620 colon,34.1 µM
same,TGI,SK-OV-3 ovarian,32.7 µM
same,TGI,RPMI-8226 leukemia,43.9 µM
same,TGI,HOP-92 NSCLC,47.3 µM
same,TGI,SNB-78 CNS,> 100 µM
same,TGI,MOLT-4 leukemia,> 100 µM
same,TGI,A549 NSCLC,30 µM
same,TGI,HOP-18 NSCLC,> 100 µM
same,TGI,NCI-H460 lung,30.7 µM
same,TGI,DLD-1 colon,30 µM
same,TGI,SK-MEL-28 melanoma,41.1 µM
same,TGI,OVCAR-5 ovarian,34.8 µM
same,TGI,SN12C renal,43.3 µM
COc1cc2cc3c4c(cc(OC)c(OC)c4c2cc1OC)CCN3C(=O)OCCN1CCNCC1,TGI,U251 CNS,28.9 µM
same,TGI,HCT-116 colon,24.2 µM
same,TGI,OVCAR-4 ovarian,31.3 µM
same,TGI,RXF 393 renal,27.9 µM
same,TGI,KM12 colon,28.3 µM
same,TGI,UO-31 renal,28.1 µM
same,TGI,SK-MEL-5 melanoma,28.2 µM
same,TGI,SK-MEL-2 melanoma,34.2 µM
same,TGI,HCT-15 colon,29.2 µM
same,TGI,SNB-75 CNS,27.5 µM
same,TGI,XF 498 CNS,29.4 µM
same,TGI,M19-MEL melanoma,19.6 µM
same,TGI,SR leukemia,29.8 µM
same,TGI,ACHN renal,28.3 µM
same,TGI,UACC-62 melanoma,28.1 µM
same,TGI,NCI-H226 lung,28.1 µM
same,TGI,IGROV1 ovarian,32.2 µM
same,TGI,SNB-19 CNS,43.3 µM
same,TGI,DMS 273 small cell lung,26.5 µM
same,TGI,HT29 colon,25.8 µM
same,TGI,NCI-H522 lung,30.6 µM
same,TGI,OVCAR-3 ovarian,28.8 µM
same,TGI,SF-539 CNS,28.4 µM
same,TGI,CAKI-1 renal,28.5 µM
same,TGI,COLO 205 colon,20.9 µM
same,TGI,SF-295 CNS,28.2 µM
same,TGI,K-562 leukemia,31.2 µM
same,TGI,OVCAR-8 ovarian,29.7 µM
same,TGI,LXFL 529 NSCLC,28.3 µM
same,TGI,TK-10 renal,28.3 µM
same,TGI,HL-60(TB) leukemia,30 µM
same,TGI,UACC-257 melanoma,29.1 µM
same,TGI,KM20L2 colon,24.9 µM
same,TGI,HOP-62 NSCLC,31.5 µM
same,TGI,786-0 renal,23.8 µM
same,TGI,A498 renal,27.8 µM
same,TGI,EKVX NSCLC,28.6 µM
same,TGI,SF-268 CNS,23.3 µM
same,TGI,MALME-3M melanoma,31 µM
same,TGI,NCI-H23 lung,31.8 µM
same,TGI,HCC-2998 colon,29.8 µM
same,TGI,M14 melanoma,27.9 µM
same,TGI,LOX IMVI melanoma,26.6 µM
same,TGI,CCRF-CEM leukemia,44.6 µM
same,TGI,SW-620 colon,28.1 µM
same,TGI,SK-OV-3 ovarian,31.8 µM
same,TGI,RPMI-8226 leukemia,34.6 µM
same,TGI,HOP-92 NSCLC,26.2 µM
same,TGI,SNB-78 CNS,31.4 µM
same,TGI,MOLT-4 leukemia,34.8 µM
same,TGI,A549 NSCLC,34.4 µM
same,TGI,HOP-18 NSCLC,30.7 µM
same,TGI,NCI-H460 lung,26.6 µM
same,TGI,DLD-1 colon,29.1 µM
same,TGI,SK-MEL-28 melanoma,36.6 µM
same,TGI,OVCAR-5 ovarian,31.9 µM
same,TGI,SN12C renal,29.9 µM
O=S1(=O)C[C@H](O)[C@H](O)CS1,TGI,U251 CNS,> 100 µM
same,TGI,HCT-116 colon,> 100 µM
same,TGI,OVCAR-4 ovarian,> 100 µM
same,TGI,RXF 393 renal,> 100 µM
same,TGI,KM12 colon,> 100 µM
same,TGI,UO-31 renal,> 100 µM
same,TGI,SK-MEL-5 melanoma,> 100 µM
same,TGI,SNB-75 CNS,> 100 µM
same,TGI,XF 498 CNS,> 100 µM
same,TGI,M19-MEL melanoma,> 100 µM
same,TGI,SR leukemia,> 100 µM
same,TGI,ACHN renal,> 100 µM
same,TGI,UACC-62 melanoma,> 100 µM
same,TGI,NCI-H226 lung,> 100 µM
same,TGI,IGROV1 ovarian,> 100 µM
same,TGI,SNB-19 CNS,> 100 µM
same,TGI,DMS 273 small cell lung,> 100 µM
same,TGI,HT29 colon,> 100 µM
same,TGI,NCI-H522 lung,> 100 µM
same,TGI,OVCAR-3 ovarian,> 100 µM
same,TGI,SF-539 CNS,> 100 µM
same,TGI,CAKI-1 renal,> 100 µM
same,TGI,COLO 205 colon,> 100 µM
same,TGI,SF-295 CNS,> 100 µM
same,TGI,K-562 leukemia,> 100 µM
same,TGI,OVCAR-8 ovarian,> 100 µM
same,TGI,LXFL 529 NSCLC,> 100 µM
same,TGI,TK-10 renal,> 100 µM
same,TGI,HL-60(TB) leukemia,> 100 µM
same,TGI,UACC-257 melanoma,> 100 µM
same,TGI,KM20L2 colon,> 100 µM
same,TGI,HOP-62 NSCLC,> 100 µM
same,TGI,786-0 renal,> 100 µM
same,TGI,A498 renal,> 100 µM
same,TGI,EKVX NSCLC,> 100 µM
same,TGI,DMS 114 small cell lung,> 100 µM
same,TGI,SF-268 CNS,> 100 µM
same,TGI,MALME-3M melanoma,> 100 µM
same,TGI,NCI-H23 lung,> 100 µM
same,TGI,HCC-2998 colon,> 100 µM
same,TGI,M14 melanoma,> 100 µM
same,TGI,LOX IMVI melanoma,> 100 µM
same,TGI,SW-620 colon,> 100 µM
same,TGI,SK-OV-3 ovarian,> 100 µM
same,TGI,RPMI-8226 leukemia,> 100 µM
same,TGI,HOP-92 NSCLC,> 100 µM
same,TGI,SNB-78 CNS,> 100 µM
same,TGI,MOLT-4 leukemia,> 100 µM
same,TGI,A549 NSCLC,> 100 µM
same,TGI,HOP-18 NSCLC,> 100 µM
same,TGI,NCI-H460 lung,> 100 µM
same,TGI,DLD-1 colon,> 100 µM
same,TGI,SK-MEL-28 melanoma,> 100 µM
same,TGI,OVCAR-5 ovarian,> 100 µM
same,TGI,SN12C renal,> 100 µM
O=[N+]([O-])c1ccc(C2=Nn3cnnc3SC2)o1,TGI,U251 CNS,30.1 µM
same,TGI,HCT-116 colon,30.8 µM
same,TGI,RXF 393 renal,32.9 µM
same,TGI,KM12 colon,47.6 µM
same,TGI,UO-31 renal,36.5 µM
same,TGI,SK-MEL-5 melanoma,31.5 µM
same,TGI,SK-MEL-2 melanoma,50.7 µM
same,TGI,HCT-15 colon,27.2 µM
same,TGI,SNB-75 CNS,51.7 µM
same,TGI,XF 498 CNS,30.2 µM
same,TGI,M19-MEL melanoma,13.8 µM
same,TGI,SR leukemia,39.4 µM
same,TGI,ACHN renal,29.4 µM
same,TGI,NCI-H226 lung,67.2 µM
same,TGI,SNB-19 CNS,79 µM
same,TGI,DMS 273 small cell lung,36.3 µM
same,TGI,HT29 colon,28.2 µM
same,TGI,OVCAR-3 ovarian,31.7 µM
same,TGI,SF-539 CNS,36.3 µM
same,TGI,SF-295 CNS,34.6 µM
same,TGI,K-562 leukemia,42.3 µM
same,TGI,OVCAR-8 ovarian,53.9 µM
same,TGI,LXFL 529 NSCLC,26.4 µM
same,TGI,TK-10 renal,> 100 µM
same,TGI,HL-60(TB) leukemia,37.6 µM
same,TGI,UACC-257 melanoma,29.6 µM
same,TGI,HOP-62 NSCLC,89.5 µM
same,TGI,786-0 renal,32.1 µM
same,TGI,A498 renal,32.3 µM
same,TGI,DMS 114 small cell lung,28.8 µM
same,TGI,SF-268 CNS,58.2 µM
same,TGI,HCC-2998 colon,29.2 µM
same,TGI,M14 melanoma,32.8 µM
same,TGI,LOX IMVI melanoma,5.99 µM
same,TGI,CCRF-CEM leukemia,51.1 µM
same,TGI,SW-620 colon,25.3 µM
same,TGI,RPMI-8226 leukemia,42.5 µM
same,TGI,HOP-92 NSCLC,49.4 µM
same,TGI,SNB-78 CNS,51.9 µM
same,TGI,MOLT-4 leukemia,43.2 µM
same,TGI,A549 NSCLC,56.7 µM
same,TGI,NCI-H460 lung,26.3 µM
same,TGI,DLD-1 colon,41.4 µM
same,TGI,SK-MEL-28 melanoma,31.1 µM
same,TGI,OVCAR-5 ovarian,36.8 µM
same,TGI,SN12C renal,30.1 µM
same,TGI,RXF-631 renal,28.1 µM
